Assay results published in patent US9029415B2, “Cooling mixtures with an enhanced cooling effect of 5-methyl-2-(propane-2-yl)cyclohexyl-N-ethyloxamate” (Symrise AG, priority 2010, dated 2015).

Tests used:
skin = assay: Cooling effect of the formulation examples as perceived by the test persons; format: in vivo, human
Description: Provided the corresponding formulations also contained trans-4-tert. butylcyclohexanol, the cooling effect was even further enhanced compared to formulations without this compound.

[1] = system: skin (both cheeks) of test persons; assay: In-vivo half-side cheek test of cooling intensity of O/W cream samples (20 panellists, scale 1-10, 30 minutes); set-up: species or system human; details: FIG. 1
Procedure: The aim of the human in vivo studies was to test the effect of the cooling mixture according to the invention in O/W formulations with regard to their cooling intensity. What was to be examined here was whether the cooling effect/cooling intensity of 5-methyl-2-(propane-2-yl)cyclohexyl-N-ethyloxamate will be enhanced in the combination of active substances according to the invention. Each individual test was carried out using 20 panellists under standardized conditions in a test institute. To this end, each test person spread two defined quantities of cream samples onto both cheeks at the same time. […] Upon application of the samples, the test persons evaluated the cooling intensities on a scale of 1-10 within a period of 30 minutes (1=weak; 10=strong). The studies were carried out as double blind studies, therefore the test institute received the formulations in an encoded form. In order to ensure test standardization, the following conditions were selected: • Controlled ventilation and temperature conditions in the room of the test persons • Use of a standardized test protocol • Detailed explanation of the test protocol • Samples were given to the test persons in uniform, clear containers • Samples were labeled with a three-digit code • A sample amount of 0.3 g of cream was applied onto each cheek • Samples were covered with a lid in order to avoid drying out of the samples • Test persons were instructed not to use any makeup on the day of the test and not to use any cosmetic products at least two hours before the test • The test persons evaluated the cooling effect of the two products on a scale of 1-10 (1=weak, 10=strong) at 32 identical points in time
The data obtained during the studies was examined with regard to any significant differences between the two samples. To this end, the data was initially examined for standard normal distribution. Provided the data met the criteria of a standard normal distribution, a pairwise t test was carried out. […] Where no normal distribution of the values was found, significance was determined via a non-parametric Wilcoxon. […]

In the case of `CCCCCCCCC(O)CO` (centres unmarked) [1,2-decanediol], the “enhancement of cooling effect when 1,2-pentanediol is replaced” value (skin; 1,2-pentanediol replaced with 1,2-decanediol in an amount of one fifth of the pentanediol) is reported as “applies analogously”.

`CCCCC(O)CO` (centres unmarked) [1,2-hexanediol] was tested, and the “enhancement of cooling effect when 1,2-pentanediol is replaced” value (skin; 1,2-pentanediol in the formulations replaced with 1,2-hexanediol at a ratio of 5:3) was “comparable effects are achieved”.

With `CCNC(=O)C(=O)O[C@@H]1C[C@H](C)CC[C@H]1C(C)C` [MEO, (1R,2S,5R)-5-methyl-2-(propane-2-yl)cyclohexyl N ethyl oxamate] the “cooling effect (cooling intensity, scale 1-10)” value ([1]; O/W emulsion with 1.0 % MEO, 0.3 g cream per cheek, 20 panellists) was “marked cooling effect”, the “onset of the cooling effect” value ([1]; after application of the formulation onto the cheek) was “immediately upon application” and the “duration of the cooling effect” value ([1]; evaluation period 30 minutes) was “more than 30 minutes”.
